#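 Protocol summary: plate cells (96-well), add compound at 5 concentrations, incubate 48 h, interpolate endpoints linearly. Abbreviation: GI50, concentration required for 50% inhibition of growth. TGI denotes the concentration required for complete inhibition of growth.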
# How the values were obtained:
# Experiment in all cases: NCI tumour cell line growth inhibition, 48 h
# [1] = test system: 786-0 renal
# [2] = test system: A549 NSCLC
# [3] = test system: ACHN renal
# [4] = test system: BT-549 breast
# [5] = test system: CAKI-1 renal
# [6] = test system: CCRF-CEM leukemia
# [7] = test system: COLO 205 colon
# [8] = test system: DU-145 prostate
# [9] = test system: EKVX NSCLC
# [10] = test system: HCC-2998 colon
# [11] = test system: HCT-116 colon
# [12] = test system: HCT-15 colon
# [13] = test system: HOP-62 NSCLC
# [14] = test system: HOP-92 NSCLC
# [15] = test system: HS 578T breast
# [16] = test system: HT29 colon
# [17] = test system: IGROV1 ovarian
# [18] = test system: K-562 leukemia
# [19] = test system: KM12 colon
# [20] = test system: LOX IMVI melanoma
# [21] = test system: M14 melanoma
# [22] = test system: MCF7 breast
# [23] = test system: MDA-MB-231 breast
# [24] = test system: MDA-MB-435
# [25] = test system: MOLT-4 leukemia
# [26] = test system: NCI-H226 lung
# [27] = test system: NCI-H23 lung
# [28] = test system: NCI-H460 lung
# [29] = test system: NCI-H522 lung
# [30] = test system: NCI/ADR-RES ovarian
# [31] = test system: OVCAR-3 ovarian
# [32] = test system: OVCAR-4 ovarian
# [33] = test system: OVCAR-5 ovarian
# [34] = test system: OVCAR-8 ovarian
# [35] = test system: PC-3 prostate
# [36] = test system: RPMI-8226 leukemia
# [37] = test system: RXF 393 renal
# [38] = test system: SF-268 CNS
# [39] = test system: SF-295 CNS
# [40] = test system: SF-539 CNS
# [41] = test system: SK-MEL-2 melanoma
# [42] = test system: SK-MEL-28 melanoma
# [43] = test system: SK-MEL-5 melanoma
# [44] = test system: SK-OV-3 ovarian
# [45] = test system: SN12C renal
# [46] = test system: SNB-19 CNS
# [47] = test system: SNB-75 CNS
# [48] = test system: SW-620 colon
# [49] = test system: T-47D breast
# [50] = test system: TK-10 renal
# [51] = test system: U251 CNS
# [52] = test system: UACC-257 melanoma
# [53] = test system: UACC-62 melanoma
# [54] = test system: UO-31 renal
# [55] = test system: A498 renal
# [56] = test system: HL-60(TB) leukemia
smiles,measurement,setting,value
O=C(Nc1ccccc1)NS(=O)(=O)c1ccc(-n2nc3c(c2-c2cccs2)Cc2ccccc2-3)cc1,GI50,[1],17.6 µM
same,TGI,[1],35.2 µM
same,GI50,[2],20.8 µM
same,TGI,[2],> 100 µM
same,GI50,[3],17.6 µM
same,TGI,[3],38 µM
same,GI50,[4],24.1 µM
same,TGI,[4],67.9 µM
same,GI50,[5],11.1 µM
same,TGI,[5],44.1 µM
same,GI50,[6],13.6 µM
same,TGI,[6],> 100 µM
same,GI50,[7],44 µM
same,TGI,[7],> 100 µM
same,GI50,[8],28.6 µM
same,TGI,[8],96.2 µM
same,GI50,[9],26.1 µM
same,TGI,[9],87.2 µM
same,GI50,[10],15.3 µM
same,TGI,[10],31.8 µM
same,GI50,[11],9.13 µM
same,TGI,[11],21.3 µM
same,GI50,[12],16.9 µM
same,TGI,[12],44.7 µM
same,GI50,[13],18.1 µM
same,TGI,[13],47 µM
same,GI50,[14],12.3 µM
same,TGI,[14],> 100 µM
same,GI50,[15],16.8 µM
same,TGI,[15],52.5 µM
same,GI50,[16],26.7 µM
same,TGI,[16],> 100 µM
same,GI50,[17],21.4 µM
same,TGI,[17],> 100 µM
same,GI50,[18],14 µM
same,TGI,[18],76.2 µM
same,GI50,[19],8.08 µM
same,TGI,[19],> 100 µM
same,GI50,[20],12 µM
same,TGI,[20],33.6 µM
same,GI50,[21],25 µM
same,TGI,[21],47 µM
same,GI50,[22],13.4 µM
same,TGI,[22],> 100 µM
same,GI50,[23],15.3 µM
same,TGI,[23],60.8 µM
same,GI50,[24],22.1 µM
same,TGI,[24],58.3 µM
same,GI50,[25],15.5 µM
same,TGI,[25],> 100 µM
same,GI50,[26],19.2 µM
same,TGI,[26],59 µM
same,GI50,[27],12.2 µM
same,TGI,[27],29.6 µM
same,GI50,[28],18.9 µM
same,TGI,[28],> 100 µM
same,GI50,[29],31.5 µM
same,TGI,[29],> 100 µM
same,GI50,[30],16.1 µM
same,TGI,[30],43 µM
same,GI50,[31],21.8 µM
same,TGI,[31],> 100 µM
same,GI50,[32],34.9 µM
same,TGI,[32],> 100 µM
same,GI50,[33],20.1 µM
same,TGI,[33],89.7 µM
same,GI50,[34],28.3 µM
same,TGI,[34],> 100 µM
same,GI50,[35],10.4 µM
same,TGI,[35],> 100 µM
same,GI50,[36],5.49 µM
same,TGI,[36],66.4 µM
same,GI50,[37],85.3 µM
same,TGI,[37],> 100 µM
same,GI50,[38],26 µM
same,TGI,[38],> 100 µM
same,GI50,[39],21.9 µM
same,TGI,[39],73.5 µM
same,GI50,[40],25 µM
same,TGI,[40],55.5 µM
same,GI50,[41],70.1 µM
same,TGI,[41],> 100 µM
same,GI50,[42],50.2 µM
same,TGI,[42],> 100 µM
same,GI50,[43],15.6 µM
same,TGI,[43],31.5 µM
same,GI50,[44],60.8 µM
same,TGI,[44],> 100 µM
same,GI50,[45],19.9 µM
same,TGI,[45],64.2 µM
same,GI50,[46],> 100 µM
same,TGI,[46],> 100 µM
same,GI50,[47],70.4 µM
same,TGI,[47],> 100 µM
same,GI50,[48],22.9 µM
same,TGI,[48],51.2 µM
same,GI50,[49],37.9 µM
same,TGI,[49],> 100 µM
same,GI50,[50],4.99 µM
same,TGI,[50],30.8 µM
same,GI50,[51],22.9 µM
same,TGI,[51],55.3 µM
same,GI50,[52],17.7 µM
same,TGI,[52],67.7 µM
same,GI50,[53],15.8 µM
same,TGI,[53],35 µM
same,GI50,[54],32.3 µM
same,TGI,[54],> 100 µM
COc1cc2c(cc1OC)C(c1ccccc1CCCCl)=NCC2,TGI,[1],> 100 µM
same,TGI,[55],> 100 µM
same,TGI,[2],> 100 µM
same,TGI,[3],> 100 µM
same,TGI,[4],> 100 µM
same,TGI,[5],> 100 µM
same,TGI,[6],> 100 µM
same,TGI,[7],> 100 µM
same,TGI,[8],> 100 µM
same,TGI,[9],> 100 µM
same,TGI,[10],> 100 µM
same,TGI,[11],> 100 µM
same,TGI,[12],> 100 µM
same,TGI,[56],> 100 µM
same,TGI,[13],> 100 µM
same,TGI,[14],> 100 µM
same,TGI,[15],> 100 µM
same,TGI,[16],> 100 µM
same,TGI,[17],> 100 µM
same,TGI,[18],> 100 µM
same,TGI,[19],> 100 µM
same,TGI,[21],> 100 µM
same,TGI,[22],> 100 µM
same,TGI,[23],> 100 µM
same,TGI,[24],45.9 µM
same,TGI,[25],> 100 µM
same,TGI,[26],> 100 µM
same,TGI,[27],> 100 µM
same,TGI,[28],> 100 µM
same,TGI,[29],> 100 µM
same,TGI,[30],> 100 µM
same,TGI,[31],> 100 µM
same,TGI,[32],> 100 µM
same,TGI,[33],> 100 µM
same,TGI,[34],> 100 µM
same,TGI,[35],> 100 µM
same,TGI,[36],42 µM
same,TGI,[37],> 100 µM
same,TGI,[38],> 100 µM
same,TGI,[39],> 100 µM
same,TGI,[40],> 100 µM
same,TGI,[41],> 100 µM
same,TGI,[42],49.7 µM
same,TGI,[43],47.2 µM
same,TGI,[44],> 100 µM
same,TGI,[45],> 100 µM
same,TGI,[46],> 100 µM
same,TGI,[47],> 100 µM
same,TGI,[48],> 100 µM
same,TGI,[49],> 100 µM
same,TGI,[50],> 100 µM
same,TGI,[51],> 100 µM
same,TGI,[52],> 100 µM
same,TGI,[53],> 100 µM
same,TGI,[54],> 100 µM

# — PubChem BioAssay (NCI)
